Test results taken from PMC12492669, “Malic enzyme-based system for transhydrogenation between nicotinamide cofactors” (Synthetic and Systems Biotechnology, 2025).

Biological target: T1, ME (NAD-dependent malic enzyme); ME∗ (ME mutant with L310R/Q401C) (Escherichia coli, UniProt P26616)
T1 construct: gene maeA; recombinant from E. coli BL21(DE3), pET24b-ME, Ni-NTA purified; 64 kDa
Test: malate oxidative decarboxylation, absorbance at […] nm
Format: biochemical
Conditions: 0.5 mM NCD, 5 mM malate, 2 mM MgCl2, 50 mM HEPES pH 7.5; weak

T1 sequence (P26616 whole entry, stated change not applied): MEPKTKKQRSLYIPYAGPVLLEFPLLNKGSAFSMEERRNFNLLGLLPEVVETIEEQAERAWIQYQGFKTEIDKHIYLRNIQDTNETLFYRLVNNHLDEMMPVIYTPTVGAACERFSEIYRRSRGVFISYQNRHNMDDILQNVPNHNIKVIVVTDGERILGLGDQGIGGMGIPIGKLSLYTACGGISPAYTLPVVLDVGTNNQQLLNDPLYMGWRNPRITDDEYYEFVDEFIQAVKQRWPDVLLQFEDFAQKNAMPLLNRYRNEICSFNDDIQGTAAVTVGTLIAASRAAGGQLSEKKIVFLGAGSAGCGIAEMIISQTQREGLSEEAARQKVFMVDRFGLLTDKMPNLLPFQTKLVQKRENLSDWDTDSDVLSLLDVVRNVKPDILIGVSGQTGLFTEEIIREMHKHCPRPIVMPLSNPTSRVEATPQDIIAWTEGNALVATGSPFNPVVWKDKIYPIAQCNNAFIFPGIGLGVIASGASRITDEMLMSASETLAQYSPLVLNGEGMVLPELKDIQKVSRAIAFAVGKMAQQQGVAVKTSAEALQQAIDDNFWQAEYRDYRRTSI

NC(=O)c1ccc[n+]([C@@H]2O[C@H](COP(=O)([O-])OP(=O)(O)OC[C@H]3O[C@@H](n4ccc(N)nc4=O)[C@H](O)[C@@H]3O)[C@@H](O)[C@H]2O)c1 [NCD]
malate oxidative decarboxylation, absorbance at 340 nm: ME exhibited the highest activity towards NAD and weak activity towards NCD and NADP
